According to ChEMBL document CHEMBL5344422, “Syrosingopine Enhances 20S Proteasome Activity and Degradation of α-Synuclein” (J Nat Prod, 2024):
The source made the active and inactive calls. The calls are words filed in the database; no cut-off is given here. Peptide text beside a SMILES is read from it. * marks the point of attachment. Cbz = O=C(OCc1ccccc1)*

Experiments:
[1] = molecular target: T1, 20S proteasome (Homo sapiens) (UniProt P49721+P20618+P28074+P28062+P28065+P28072+P25786+P25787+P25788+P25789+P28066+P60900+O14818+Q8TAA3+P40306+A5LHX3+P49720+P28070+Q99436); assay: Activation of human 20S proteasome chymotrypsin-like hydrolysis activity assessed as measuring fold increase in protein activity using SucLLVY-MCA as a fluorogenic substrate at 20 uM incubated for 1 hrs by fluorescence based assay relative to DMSO; format: protein-complex assay
[2] = molecular target: T1, 20S proteasome (Homo sapiens); assay: Activation of human 20S proteasome chymotrypsin-like hydrolysis activity assessed as measuring fold increase in protein activity using SucLLVY-MCA as a fluorogenic substrate at 10 uM incubated for 20 mins by fluorescence based assay relative to DMSO; format: protein-complex assay; conditions: filed as activator
[3] = molecular target: T1, 20S proteasome (Homo sapiens); assay: Activation of 20S proteasome in human HeLa cells assessed as gate opening by measuring increase in membrane-permeable fluorescent probe signal pretreated for 20 hrs followed by treated with Me4BodipyFL-Ahx3Lue3VS probe for 2 hrs by flow cytometry relative to DMSO; format: cell-based; conditions: filed as activator, time 22.0 hrs
[4] = molecular target: T1, 20S proteasome (Homo sapiens); assay: Activation of human 20S proteasome assessed as alpha-synuclein degradation incubated for 20 mins by Western blot analysis; format: protein-complex assay; conditions: filed as activator
[5] = molecular target: T1, 20S proteasome (Homo sapiens); assay: Activation of human 20S proteasome mediated caspase-like proteolytic activity assessed as maximal fold increase in protein activity using […] as a fluorogenic substrate incubated for 1 hr by fluorescence based assay; format: protein-complex assay; conditions: filed as activator
[6] = molecular target: T1, 20S proteasome (Homo sapiens); assay: Activation of human 20S proteasome assessed as alpha-synuclein degradation in presence of MG132 incubated for 20 mins by Western blot analysis; format: protein-complex assay
[7] = molecular target: T1, 20S proteasome (Homo sapiens); assay: Activation of human 20S proteasome trypsin-like hydrolysis activity assessed as concentration to doubling the protein activity using […] as a fluorogenic substrate measured after 1 hr by fluorescence based assay; format: protein-complex assay; conditions: filed as activator
[8] = molecular target: T1, 20S proteasome (Homo sapiens); assay: Activation of human 20S proteasome mediated chymotrypsin-like proteolytic activity assessed as maximal fold increase in protein activity using SucLLVY-MCA as a fluorogenic substrate incubated for 1 hr by fluorescence based assay; format: protein-complex assay; conditions: filed as activator
[9] = molecular target: 26S proteasome (Homo sapiens) (UniProt Q99460+P49721+P20618+P28074+P28062+P28065+P28072+O00487+P25786+P25787+P25788+P25789+P28066+P60900+O14818+Q8TAA3+P40306+A5LHX3+P49720+P28070+Q99436+Q16186+P35998+P62191+P43686+P62333+P17980+P62195+Q13200+O43242+O00232+O00231+Q15008+P51665+Q9UNM6+P55036+P48556+P60896); assay: Activation of human 26S proteasome mediated proteolytic hydrolysis activity using SucLLVY-AMC as a flurogenic substrate measured every minute for 1 hrs by fluorescence based assay; format: protein-complex assay
[10] = molecular target: T1, 20S proteasome (Homo sapiens); assay: Activation of human 20S proteasome caspase-like hydrolysis activity assessed as concentration to doubling the protein activity using […] as a fluorogenic substrate measured after 1 hr by fluorescence based assay; format: protein-complex assay; conditions: filed as activator
[11] = molecular target: T1, 20S proteasome (Homo sapiens); assay: Activation of human 20S proteasome chymotrypsin-like hydrolysis activity assessed as concentration to doubling the protein activity using SucLLVY-MCA as a fluorogenic substrate measured after 1 hr by fluorescence based assay; format: protein-complex assay; conditions: filed as activator
[12] = molecular target: T1, 20S proteasome (Homo sapiens); assay: Activation of human 20S proteasome mediated trypsin-like proteolytic activity assessed as maximal fold increase in protein activity using […] as a fluorogenic substrate incubated for 1 hr by fluorescence based assay; format: protein-complex assay; conditions: filed as activator
[13] = molecular target: T1, 20S proteasome (Homo sapiens); assay: Activation of human 20S proteasome chymotrypsin-like hydrolysis activity assessed as measuring fold increase in protein activity using SucLLVY-MCA as a fluorogenic substrate at 20 uM incubated for 20 mins by fluorescence based assay relative to DMSO; format: protein-complex assay; conditions: filed as activator

Compound	fold change (FC) ([1]; filed as activator)	fold change (FC) [1]	fold change (FC) [2]	further results
Cc1cc2c(C(C)C)c(O)c(O)c(C=O)c2c(O)c1-c1c(C)cc2c(C(C)C)c(O)c(O)c(C=O)c2c1O	4	–	–	–
CC(C)=CCC/C(C)=C/CC/C(C)=C/CC/C(C)=C/CC1=C(C)C(=O)c2ccccc2C1=O	4.5	–	–	–
C[C@H]1[C@H](C)CC[C@]2(C(=O)O)CC[C@]3(C)C(=CC[C@@H]4[C@@]5(C)CC[C@H](O)C(C)(C)[C@@H]5CC[C@]43C)[C@H]12	6.5	–	–	–
COc1cc(/C=C/C(=O)CC(=O)/C=C/c2ccc(O)c(OC)c2)ccc1O	5.4	–	–	–
RAUWOLFIA SERPENTINA	–	< 3	1.05	–
CC(C)C[C@H]1C(=O)N2CCC[C@H]2[C@]2(O)O[C@](NC(=O)[C@@H]3C=C4c5cccc6[nH]cc(c56)C[C@H]4N(C)C3)(C(C)C)C(=O)N12	8.9	–	–	–
COc1ccc2c3c([nH]c2c1)[C@H]1C[C@H]2[C@H](C[C@@H](O)[C@H](OC)[C@H]2C(=O)O)CN1CC3	–	< 3	2.73	–
COC(=O)[C@H]1[C@H]2C[C@H]3c4[nH]c5ccccc5c4CCN3C[C@H]2CC[C@@H]1O	–	< 3	1.32	–
Cc1cc2nc3c(=O)[nH]c(=O)nc-3n(C[C@H](O)[C@H](O)[C@H](O)CO)c2cc1C	4.5	–	–	–
CC(C)C[C@H]1C(=O)N2CCC[C@H]2[C@]2(O)O[C@](NC(=O)[C@@H]3C=C4c5cccc6[nH]c(Br)c(c56)C[C@H]4N(C)C3)(C(C)C)C(=O)N12	6.7	–	–	–
CC(C)[C@@]1(NC(=O)[C@@H]2C[C@@H]3c4cccc5[nH]cc(c45)C[C@H]3N(C)C2)O[C@@]2(O)[C@@H]3CCCN3C(=O)[C@H](Cc3ccccc3)N2C1=O	8	–	–	–
CC(C)C[C@@H](C=O)NC(=O)[C@H](CC(C)C)NC(=O)[C@H](CC(C)C)NC(=O)OCc1ccccc1 (Cbz-Leu-Leu-Leu-aldehyde)	–	–	–	Activity [3]: 0.11
COC(=O)[C@H]1[C@H]2C[C@H]3c4[nH]c5ccccc5c4CCN3C[C@@H]2CC[C@@H]1O	–	< 3	0.99	–
COC(=O)[C@H]1[C@H]2C[C@@H]3c4[nH]c5cc(OC)ccc5c4CCN3C[C@H]2C[C@@H](OC(=O)c2cc(OC)c(OC)c(OC)c2)[C@@H]1OC	7.9	–	7.91	Activity [4]: Active; fold change (FC) [5]: 7; Activity [6]: inactive; CD [7]: 1.3 µM; fold change (FC) [8]: 4.8; Activity [9]: inactive; CD [10]: 0.53 µM; CD [11]: 1.6 µM; fold change (FC) [12]: 7
O=C(O)[C@@H]1[C@H]2C[C@H]3c4[nH]c5ccccc5c4CCN3C[C@@H]2CC[C@@H]1O	–	< 3	2.17	–
CCOC(=O)Oc1c(OC)cc(C(=O)O[C@@H]2C[C@@H]3CN4CCc5c([nH]c6cc(OC)ccc56)[C@H]4C[C@@H]3[C@H](C(=O)OC)[C@H]2OC)cc1OC	13	–	12.5	Activity [4]: Active; fold change (FC) [5]: 9.4; Activity ([6]; filed as activator): Active; CD [7]: 0.96 µM; Activity [3]: 2.84; fold change (FC) [8]: 9.8; Activity [9]: inactive; CD [10]: 0.38 µM; CD [11]: 1 µM; fold change (FC) [12]: 8
COC(=O)[C@H]1/C(=N/O)CC[C@H]2CN3CCc4c([nH]c5ccccc45)[C@@H]3C[C@@H]21	–	< 3	1.49	–
CC(C)[C@H]1C(=O)N2CCC[C@H]2[C@]2(O)O[C@](NC(=O)[C@@H]3C[C@@H]4c5cccc6[nH]cc(c56)C[C@H]4N(C)C3)(C(C)C)C(=O)N12	4.3	–	–	–
CN(C)CCCN1c2ccccc2Sc2ccc(Cl)cc21	–	–	–	Activity [3]: 1.29; fold change (FC) [13]: 4.09
CN1C[C@H](C(=O)N[C@]2(C)O[C@@]3(O)[C@@H]4CCCN4C(=O)[C@H](Cc4ccccc4)N3C2=O)C=C2c3cccc4[nH]cc(c34)C[C@H]21	7.2	–	–	–
COC(=O)[C@@H]1[C@H]2C[C@H]3c4[nH]c5ccccc5c4CCN3C[C@@H]2CC[C@@H]1O	–	< 3	0.82	–
